pIC50: −log10 of the molar value. Counter-ions that a name gives are not always drawn. Like-named read-outs stand apart in the source and are kept apart here.
System: Primary human T-cells
Assay: Primary Human T-Cell Proliferation Assay Stimulated with IL-2 (CellTiter-Glo)
Assay type: cell-based
Details: read-out: IC50, Example 42
Summary of the method: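 IC50 derived from CellTiter-Glo ATP signal after 72 hours of IL-2-driven proliferation at 37° C. Cells: primary human T-cells from blood, stimulated beforehand 3-4 days on anti-CD3/anti-CD28 with IL-2, then rested from IL-2 before compound exposure in duplicate; IL-2-free wells served as unstimulated control.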

[1] = Homo sapiens, T-cell, primary human T-cell proliferation stimulated with IL-2
[2] = Homo sapiens, T-cell, primary human T-cells stimulated with IL-2, proliferation
[3] = primary human T-cells stimulated with IL-2, proliferation

Row | SMILES | pIC50 [1] | further results
1 | COc1cc(Nc2nc(Nc3cccc(S(N)(=O)=O)c3)ncc2F)ccc1OCC#N [Compound I-46, N2-(3-Aminosulfonylphenyl)-N4-(4-cyanomethoxy-3-methoxyphenyl)-5-fluoro-2,4-pyrimidinediamine] | 6.39 | 
2 | Cc1cc(Nc2nc(Nc3cccc(S(N)(=O)=O)c3)ncc2F)ccc1CCC#N [III-20, N2-(3-Aminosulfonylphenyl)-N4-[4-(2-cyanoethyl)-3-methylphenyl]-5-fluoro-2,4-pyrimidinediamine] | 6.12 | 
3 | Cc1cc2ccc(CNc3nc(Nc4cccc(S(N)(=O)=O)c4)ncc3F)cc2[nH]1 [Compound X-3] |  | pIC50 [2]: 5.96
4 | Cc1cnc(Nc2ccc(S(N)(=O)=O)cc2)nc1Nc1ccc(OCC(=O)N(C)C)c(F)c1 [Compound I-137, N2-(4-Aminosulfonylphenyl)-N4-(4-dimethylaminocarbonylmethoxy-3-fluorophenyl)-5-methyl-2,4-pyrimidinediamine] | 5.96 | 
5 | COc1ccc(Nc2ncc(F)c(Nc3ccc(CN4CCSCC4)cc3)n2)cc1S(N)(=O)=O [III-109, N2-(3-Aminosulfonyl-4-methyoxyphenyl)-5-fluoro-N4-(4-thiomorpholinomethylenephenyl)-2,4-pyrimidinediamine] |  | pIC50 [3]: 6.60
6 | Cc1ccc(Nc2ncc(F)c(Nc3ccc(CCC#N)c(F)c3)n2)cc1S(N)(=O)=O [III-17, N2-(3-Aminosulfonyl-4-methylphenyl)-5-fluoro-N4-[4-(2-cyanoethyl)-3-fluorophenyl]-2,4-pyrimidinediamine] | 6.70 | 
7 | Cc1cc(COc2ccc(Nc3nc(Nc4cccc(S(=O)(=O)NCc5oc(=O)oc5C)c4)ncc3F)cc2)no1 [Compound I-247, N2-{3-[(N-5-Methyl-1,3-dioxolene-2-one-4-yl)methylene]aminosulfonylphenyl}-5-fluoro-N4-[4-(5-methylisoxazol-3-yl)methyleneoxyphenyl]-2,4-pyrimidinediamine] | 6.93 | 
8 | N#CCOc1ccc(Nc2nc(Nc3ccc(S(N)(=O)=O)cc3)ncc2F)cc1F [Compound I-44, N2-(4-Aminosulfonylphenyl)-N4-(4-cyanomethoxy-3-fluorophenyl)-5-fluoro-2,4-pyrimidinediamine] | 6.47 | 
9 | COC(=O)c1ccc(Nc2nc(Nc3ccc(F)c(S(N)(=O)=O)c3)ncc2F)s1 [IX-48, N2-(3-Aminosulfonyl-4-fluorophenyl)-5-fluoro-N4-(5-methoxycarbonyl-thiophene-2-yl)-2,4-pyrimidinediamine] |  | pIC50 [2]: 5.58
10 | Cc1ccc(Nc2ncc(C)c(Nc3ccc(OCC(=O)N(C)C)c(F)c3)n2)cc1S(N)(=O)=O [Compound I-139, N2-(3-Aminosulfonyl-4-methylphenyl)-N4-(4-dimethylaminocarbonylmethoxy-3-fluorophenyl)-5-methyl-2,4-pyrimidinediamine] | 6.62 | 
11 | NC(=O)COc1ccc(Nc2nc(Nc3ccc(S(N)(=O)=O)cc3)ncc2F)cc1Cl [Compound I-97, N4-(4-Aminocarbonylmethoxy-3-chlorophenyl)-N2-(4-aminosulfonylphenyl)-5-fluoro-2,4-pyrimidinediamine] | 6.06 | 
12 | NS(=O)(=O)c1ccc(Nc2ncc(F)c(Nc3ccc(Cc4ccncc4)cc3)n2)cc1 [III-71, N2-(4-Aminosulfonylphenyl)-5-fluoro-N4-[4-(4-pyridinylmethyl)phenyl]-2,4-pyrimidinediamine] | 6.43 | 
13 | COc1cc(Nc2nc(Nc3ccc(S(N)(=O)=O)cc3)ncc2F)ccc1OCC#N [Compound I-45, N2-(4-Aminosulfonylphenyl)-N4-(4-cyanomethoxy-3-methoxyphenyl)-5-fluoro-2,4-pyrimidinediamine] | 6.08 | 
14 | CNC(=O)COc1ccc(Nc2nc(Nc3cccc(S(N)(=O)=O)c3)ncc2C)cc1F [Compound I-155, N2-(3-Aminosulfonylphenyl)-N4-(3-fluoro-4-methylaminocarbonylmethoxyphenyl)-5-methyl-2,4-pyrimidinediamine] | 7.00 | 
15 | Cc1ccc(Nc2ncc(F)c(Nc3ccc(OCC(N)=O)c(Cl)c3)n2)cc1S(N)(=O)=O [Compound I-99, N4-(4-Aminocarbonylmethoxy-3-chlorophenyl)-N2-(3-aminosulfonyl-4-methylphenyl)-5-fluoro-2,4-pyrimidinediamine] | 6.83 | 
16 | NS(=O)(=O)c1cccc(Nc2ncc(F)c(Nc3ccc(Oc4cccnc4)cc3)n2)c1 [II-11, N2-(3-Aminosulfonylphenyl)-5-fluoro-N4-[4-(3-pyridyloxy)phenyl]-2,4-pyrimidinediamine] | 6.70 | 
17 | Cc1ccc(Nc2ncc(F)c(Nc3ccc(OC4CCN(C)CC4)cc3)n2)cc1S(N)(=O)=O [II-7, N2-(3-Aminosulfonyl-4-methylphenyl)-5-fluoro-N4-{4-[(1-methylpiperidin-4-yl)oxy]phenyl}-2,4-pyrimidinediamine] | 6.28 | 
18 | CN(C)C(=O)COc1ccc(Nc2nc(Nc3cccc(S(N)(=O)=O)c3)ncc2F)cc1Cl [Compound I-132, N2-(3-Aminosulfonylphenyl)-N4-(3-chloro-4-dimethylaminocarbonylmethoxyphenyl)-5-fluoro-2,4-pyrimidinediamine] | 6.33 | 

Row | SMILES | pIC50 [1] | further results
19 | NS(=O)(=O)c1cccc(Nc2ncc(F)c(NCCc3ccc(-c4ccncc4)cc3)n2)c1 [III-76, N2-(3-Aminosulfonylphenyl)-5-fluoro-N4-[4-(4-pyridinyl)phenethyl]-2,4-pyrimidinediamine] | 6.87 | 
20 | Cc1cnc(Nc2ccc(Cl)c(S(N)(=O)=O)c2)nc1Nc1ccc(CCC#N)cc1 [III-12, N2-(3-Aminosulfonyl-4-chlorophenyl)-N4-[4-(2-cyanoethyl)phenyl]-5-methyl-2,4-pyrimidinediamine] | 6.97 | 
21 | CN(C)C(=O)OCCc1ccc(Nc2nc(Nc3cccc(S(N)(=O)=O)c3)ncc2F)cc1 [III-57, N2-(3-Aminosulfonylphenyl)-N4-{4-[2-(dimethylaminocarbonyloxy)ethyl]phenyl}-5-fluoro-2,4-pyrimidinediamine] | 6.77 | 
22 | Cc1ccc(Nc2ncc(C)c(Nc3ccc(OCC#N)cc3)n2)cc1S(N)(=O)=O [Compound I-59, N2-(3-Aminosulfonyl-4-methylphenyl)-N4-(4-cyanomethoxyphenyl)-5-methyl-2,4-pyrimidinediamine] | 7.60 | 
23 | COc1ccc(Nc2ncc(F)c(Nc3ccc(OCC#N)cc3)n2)cc1S(N)(=O)=O [Compound I-56, N2-(3-Aminosulfonyl-4-methoxyphenyl)-N4-(4-cyanomethoxyphenyl)-5-fluoro-2,4-pyrimidinediamine] | 6.58 | 
24 | CNC(=O)OCCc1ccc(Nc2nc(Nc3cccc(S(N)(=O)=O)c3)ncc2F)cc1 [III-60, N2-(3-Aminosulfonylphenyl)-5-fluoro-N4-{4-[2-(methylaminocarbonyloxy)ethyl]phenyl}-2,4-pyrimidinediamine] | 6.75 | 
25 | Cc1ccc(Nc2ncc(C)c(Nc3ccc(OCC(N)=O)cc3)n2)cc1S(N)(=O)=O [Compound I-110, N4-(4-Aminocarbonylmethoxyphenyl)-N2-(3-aminosulfonyl-4-methylphenyl)-5-methyl-2,4-pyrimidinediamine] | 6.60 | 
26 | Cc1ccc(Nc2ncc(F)c(Nc3ccc(OC4CCN(C)CC4)c(C(F)(F)F)c3)n2)cc1S(N)(=O)=O [II-6, N2-(3-Aminosulfonyl-4-methylphenyl)-5-fluoro-N4-{4-[(1-methylpiperidin-4-yl)oxy]-3-trifluoromethylphenyl}-2,4-pyrimidinediamine] | 5.91 | 
27 | Cc1cnc(Nc2cccc(S(N)(=O)=O)c2)nc1Nc1ccc(OCC(=O)N(C)C)c(F)c1 [Compound I-138, N2-(3-Aminosulfonylphenyl)-N4-(4-dimethylaminocarbonylmethoxy-3-fluorophenyl)-5-methyl-2,4-pyrimidinediamine] | 6.65 | 
28 | CN(C)C(=O)COc1ccc(Nc2nc(Nc3ccc(S(N)(=O)=O)cc3)ncc2F)cc1Cl [Compound I-131, N2-(4-Aminosulfonylphenyl)-N4-(3-chloro-4-dimethylaminocarbonylmethoxyphenyl)-5-fluoro-2,4-pyrimidinediamine] | 5.42 | 
29 | CNS(=O)(=O)c1cc(Nc2ncc(F)c(Nc3cccc(-c4cnco4)c3)n2)ccc1C [IV-4, 5-Fluoro-N2-[3-(N-methylaminosulfony)-4-methylphenyl]-N4-[3-(1,3-oxazol-5-yl)phenyl]-2,4-pyrimidinediamine] |  | pIC50 [3]: 6.52
30 | COc1ccc(CN2C(=O)C(C)Oc3ccc(Nc4nc(Nc5ccc(S(N)(=O)=O)cc5)ncc4F)cc32)cc1 (racemic) [Compound V-4, Racemic N2-(4-Aminosulphonylphenyl)-5-fluoro-N4-[2-methyl-3-oxo-4-(4-methoxybenzyl)-benz[1,4]oxazin-6-yl]-2,4-pyrimidinediamine] |  | pIC50 [3]: 5.81
31 | NS(=O)(=O)c1cccc(Nc2ncc(F)c(Nc3ccc(Cn4cncn4)cc3)n2)c1 [III-100, N2-(3-Aminosulfonylphenyl)-5-fluoro-N4-{4-[1-(1,2,4-thazolyl)methyl]phenyl}-2,4-pyrimidinediamine] |  | pIC50 [3]: 6.71
32 | COc1cc(Nc2nc(Nc3ccc(C)c(S(N)(=O)=O)c3)ncc2F)ccc1OCC#N [Compound I-47, N2-(3-Aminosulfonyl-4-methylphenyl)-N4-(4-cyanomethoxy-3-methoxyphenyl)-5-fluoro-2,4-pyrimidinediamine] | 6.26 | 
33 | NS(=O)(=O)c1cccc(Nc2ncc(F)c(Nc3ccc(Cc4ccncc4)cc3)n2)c1 [III-129, N2-(3-Aminosulfonylphenyl)-5-fluoro-N4-[4-(4-pyridylmethyl)phenyl]-2,4-pyrimidinediamine Methanesulfonic Acid Salt] |  | pIC50 [3]: 6.74
34 | Cc1cc(Nc2nc(Nc3ccc(C)c(S(N)(=O)=O)c3)ncc2F)ccc1CCC#N [III-19, N2-(3-Aminosulfonyl-4-methylphenyl)-N4-[4-(2-cyanoethyl)-3-methylphenyl]-5-fluoro-2,4-pyrimidinediamine] | 6.76 | 
35 | Cc1cnc(Nc2ccc(S(N)(=O)=O)cc2)nc1Nc1ccc(OCC(=O)N(C)C)c(Cl)c1 [Compound I-134, N2-(4-Aminosulfonylphenyl)-N4-(3-chloro-4-dimethylaminocarbonylmethoxyphenyl)-5-methyl-2,4-pyrimidinediamine] | 6.29 | 

Source: US11827628B2, “Compositions and methods for inhibition of the JAK pathway” (Rigel Pharmaceuticals, Inc., priority 2005, dated 2023)
